From patent US10385085B2, “Crystal forms of sialic acid or salt or solvate thereof” (Ultragenyx Pharmaceutical Inc., priority 2015, dated 2019)

How the values were obtained:
Format in all cases: physicochemical
[1] = Approximate solvent solubility screen (aliquot addition); settings: for solubility: 40 °C, thermodynamic from solid
Description: Approximately 10 mg of sialic acid was used to check the solubility in 31 different solvents or solvent mixtures.
50 μl aliquots of solvent were added in attempts to dissolve the sialic acid. The volume range used varied between 50 μl and 2 ml. Dissolution was aided by heating to 40° C. and shaking the vial between aliquots.
The mixture of solvents Ethanol:Acetone:Ethyl acetate (85:12:3 wt %) will be referred to as “Ethynol” hereafter.

[2] = 7 day stress stability, chemical stability by HPLC; settings: 1 week stress test, conditions studied
Description: The chemical purity was measured on an Agilent HP1100 HPLC system fitted with an Agilent variable wavelength UV detector. Samples were prepared by dissolving in diluent at a concentration of 1 mg/mL before being analysed under the following HPLC conditions:
(§1) The selected Forms (5, 3 and 2) were fully characterized by PLM, XRPD, ^1H NMR and IR spectroscopy, DSC, TG/DTA, GVS (with post-GVS XRPD), Karl Fischer titration for water content and HPLC analysis for purity. All of these forms with the addition of Form 1 were also placed under a stress-stability test, at three different conditions for one week (ambient conditions, 40° C. and 75% relative humidity, 80° C.). In addition to this, an approximate solubility test was conducted on the different solid forms using a solvent addition method.
(§2) All four Forms (1, 2, 3 and 5) were placed under 7 day stress stability testing. This was carried out by placing the four forms under three different conditions for one week. Their physical stability was then analyzed by comparing the diffractograms and the chemical stability was checked by HPLC.

[3] = 7 day stress stability, physical form by XRPD
Description: XRPD analysis was carried out on a Panalytical X′pert Pro, scanning the samples between 3 and 35° […]. The material was gently ground and loaded onto a multi well plate with Kapton or mylar polymer film to support the sample. The multi well plate was then loaded into a Panalytical diffractometer running in transmission mode and analysed, using the following experimental conditions.
as §1, §2

[4] = Gravimetric Vapour Sorption (GVS) with post-GVS XRPD
Description: Approximately 10-20 mg of sample was placed into a mesh vapour sorption balance pan and loaded into an IGASorp Moisture Sorption Analyser balance by Hiden Analytical. The sample was subjected to a ramping profile from 40-90% relative humidity (RH) at 10% increments, maintaining the sample at each step until a stable weight had been achieved (98% step completion). After completion of the sorption cycle, the sample was dried using the same procedure to 0% RH, and finally taken back to the starting point of 40% RH. The weight change during the sorption/desorption cycles were plotted, allowing for the hygroscopic nature of the sample to be determined.

CC(=O)N[C@H]1[C@H]([C@H](O)[C@H](O)CO)OC(O)(C(=O)O)C[C@@H]1O (stereo partly drawn) [Sialic acid, N-acetylneuraminic acid]
solubility ([1]; aqueous with cosolvent or surfactant or cyclodextrin, solvent: Water:Acetic Acid (80:20) v/v): > 213000 µg/mL
solubility ([1]; organic solvent or mixture, solvent: 1,4-Dioxane): < 4900 µg/mL
solubility ([1]; organic solvent or mixture, solvent: 1-Butanol): < 6100 µg/mL
solubility ([1]; organic solvent or mixture, solvent: 2-Ethoxy ethanol): < 6800 µg/mL
solubility ([1]; organic solvent or mixture, solvent: 2-Methyl THF): < 5200 µg/mL
solubility ([1]; organic solvent or mixture, solvent: 2-propanol): < 5000 µg/mL
solubility ([1]; organic solvent or mixture, solvent: Acetic acid): < 5400 µg/mL
solubility ([1]; organic solvent or mixture, solvent: Acetone): < 5600 µg/mL
solubility ([1]; organic solvent or mixture, solvent: Acetone:Ethanol (50:50) v/v): < 5100 µg/mL
solubility ([1]; organic solvent or mixture, solvent: Acetone:Ethyl Acetate (50:50) v/v): < 4800 µg/mL
solubility ([1]; organic solvent or mixture, solvent: Acetone:Water (90:10) v/v): < 5100 µg/mL
solubility ([1]; organic solvent or mixture, solvent: Acetonitrile): < 4800 µg/mL
solubility ([1]; organic solvent or mixture, solvent: Dichloromethane): < 5100 µg/mL
solubility ([1]; organic solvent or mixture, solvent: Diisopropyl ether): < 4800 µg/mL
solubility ([1]; organic solvent or mixture, solvent: Dimethylacetamide): > 72600 µg/mL
solubility ([1]; organic solvent or mixture, solvent: Dimethylsulfoxide): > 301000 µg/mL
solubility ([1]; organic solvent or mixture, solvent: Ethanol): < 5100 µg/mL
solubility ([1]; organic solvent or mixture, solvent: Ethanol:Water (90:10) v/v): < 5200 µg/mL
solubility ([1]; organic solvent or mixture, solvent: Ethyl acetate): < 5800 µg/mL
solubility ([1]; organic solvent or mixture, solvent: Ethynol (Ethanol:Acetone:Ethyl acetate 85:12:3 wt %)): < 5300 µg/mL
solubility ([1]; organic solvent or mixture, solvent: Isopropyl acetate): < 6500 µg/mL
solubility ([1]; organic solvent or mixture, solvent: Methanol): < 5200 µg/mL
solubility ([1]; organic solvent or mixture, solvent: Methylethyl ketone): < 5700 µg/mL
solubility ([1]; organic solvent or mixture, solvent: Methylisobutyl ketone): < 6300 µg/mL
solubility ([1]; organic solvent or mixture, solvent: N-Methyl-2-pyrrolidone): > 72100 µg/mL
solubility ([1]; organic solvent or mixture, solvent: Nitromethane): < 6000 µg/mL
solubility ([1]; organic solvent or mixture, solvent: Tetrahydrofuran): < 5300 µg/mL
solubility ([1]; organic solvent or mixture, solvent: Toluene): < 5900 µg/mL
solubility ([1]; organic solvent or mixture, solvent: n-Heptane): < 5300 µg/mL
solubility ([1]; organic solvent or mixture, solvent: tert-Butylmethyl ether): < 4600 µg/mL
solubility ([1]; solvent: Water): > 212000 µg/mL
Visual Observation ([1]; solvent: 1,4-Dioxane): Partial Solubility
Visual Observation ([1]; solvent: 1-Butanol): Partial Solubility
Visual Observation ([1]; solvent: 2-Ethoxy ethanol): Partial Solubility
Visual Observation ([1]; solvent: 2-Methyl THF): Partial Solubility
Visual Observation ([1]; solvent: 2-propanol): Partial Solubility
Visual Observation ([1]; solvent: Acetic acid): Partial Solubility
Visual Observation ([1]; solvent: Acetone): Low Solubility
Visual Observation ([1]; solvent: Acetone:Ethanol (50:50) v/v): Partial Solubility
Visual Observation ([1]; solvent: Acetone:Ethyl Acetate (50:50) v/v): Low Solubility
Visual Observation ([1]; solvent: Acetone:Water (90:10) v/v): Partial Solubility
Visual Observation ([1]; solvent: Acetonitrile): Low Solubility
Visual Observation ([1]; solvent: Dichloromethane): Partial Solubility
Visual Observation ([1]; solvent: Diisopropyl ether): Low Solubility
Visual Observation ([1]; solvent: Dimethylacetamide): Soluble
Visual Observation ([1]; solvent: Dimethylsulfoxide): Soluble
Visual Observation ([1]; solvent: Ethanol): Partial Solubility
Visual Observation ([1]; solvent: Ethanol:Water (90:10) v/v): Partial Solubility
Visual Observation ([1]; solvent: Ethyl acetate): Extremely low
Visual Observation ([1]; solvent: Ethynol (Ethanol:Acetone:Ethyl acetate 85:12:3 wt %)): Partial Solubility
Visual Observation ([1]; solvent: Isopropyl acetate): Extremely low
Visual Observation ([1]; solvent: Methanol): Partial Solubility
Visual Observation ([1]; solvent: Methylethyl ketone): Partial Solubility
Visual Observation ([1]; solvent: Methylisobutyl ketone): Low Solubility
Visual Observation ([1]; solvent: N-Methyl-2-pyrrolidone): Soluble
Visual Observation ([1]; solvent: Nitromethane): Low Solubility
Visual Observation ([1]; solvent: Tetrahydrofuran): Low Solubility
Visual Observation ([1]; solvent: Toluene): Partial Solubility
Visual Observation ([1]; solvent: Water): Soluble
Visual Observation ([1]; solvent: Water:Acetic Acid (80:20) v/v): Soluble
Visual Observation ([1]; solvent: n-Heptane): Extremely low
Visual Observation ([1]; solvent: tert-Butylmethyl ether): Extremely low

CC(=O)N[C@H]1[C@H]([C@H](O)[C@H](O)CO)OC(O)(C(=O)O)C[C@@H]1O (stereo partly drawn) [An embodiment of Form 2, N-acetylneuraminic acid]
Chemical stability [2]: good
Physical form (XRPD) after stress ([3]; 1 week at 40° C./75% RH): converts to Form 1
Physical form (XRPD) after stress ([3]; 1 week at 80° C.): stable
Physical form (XRPD) after stress ([3]; 1 week under ambient conditions): mixture of Forms 1 and 2
Hygroscopicity (GVS) [4]: slightly hygroscopic
GVS weight loss on sorption ([4]; RH>50%): ca. 1.5%
Polymorphic form after GVS (XRPD) ([4]; material reclaimed after GVS run): transformed to Form 1
